What was measured:
[1] = test system: MYC-CTNNB1 tumor organoids; assay: Combination treatment matrices in MYC-CTNNB1 tumor organoids; format: cell-based, mouse; conditions: for effect of EZH2 degradation or inhibition (MS1943, GSK343) on activity: 3 days MS1943 or GSK343, then 3 days co-treatment; for Combination Index CI with p38i SB202190: titration of SB202190; for Combination Index CI with p38i SB202190 / Combination Index CI with KIT ligand SCF / Combination Index CI with BRAFi dabrafenib: 3 days; for Combination Index CI with KIT ligand SCF: titration of SCF; for Combination Index CI with BRAFi dabrafenib: titration of dabrafenib
Description: FIG. 6A-6C are Volcano plots depicting phosphoproteomic (FIG. 6A), transcriptomic (FIG. 6B), and orepigenomic H3K27me3 (FIG. 6C) changes elicited by WNTinib inMYC-CTNNB1 tumor organoids (left) or MYC-Tp53 tumor organoids (right) as compared to DMSO. […] Values obtained from two biological replicates. […] Western blots measure endogenous proteins as indicated. […] Tubulin and histone H3 used as fractionation controls. […] Inset: western blot depicting depletion efficiency. Values obtained from three biological replicates [mean, SEM]. […] Tumor organoids were first treated with MS1943 or GSK343 for 3 days, followed by co-treatment with sorafenib or WNTinib for an additional 3 days. […] Combination index (CI) values were calculated for each column and averaged across each matrix.
Tumor organoids were treated for 3 days. […] Combination index (CI) values were calculated for each column and averaged across each matrix. […] FIGS. 7G-7H show combination treatment matrices for MYC-CTNNB1 tumor organoids treated with sorafenib (right) or WNTinib (left) and the BRAF inhibitor dabrafenib (FIG. 7G), or the p38 inhibitor SB202190 (FIG. 7H). Tumor organoids were treated for 3 days. […] Combination index (CI) values were calculated for each column and averaged across each matrix. […] Values obtained from three technical replicates [mean, SEM].
For assays in organoid lines, 96 well plates were first coated with a 50:50 solution of basal media:Matrigel (35 μL/well), which polymerized for 15 minutes at 37° C. Tumor organoids were taken out of Matrigel, broken, and washed. Tumor organoids were seeded at 1,000 cells per well and were treated the following day with serial dilutions (in the case of IC50 curves) or single doses (in the case of the initial screen) of drugs in technical triplicate. Final DMSO concentrations were kept below 0.5%. For adherent lines, cells were seeded at 5,000 cells per well in uncoated 96 well plates. […] Viability was measured three days post drug administration with either luminescence from CellTiter-Glo or absorbance at 560 and 590 nm from resazurin. Viability data was analyzed by normalizing individual drug-treated well values to DMSO-treated wells.

[2] = Single dose oral pharmacokinetics; format: in vivo, BALB/c mice; conditions: for half-life: 20 mg/kg oral gavage
Protocol: All animal experiments were carried out in accordance with ethical guidelines and approved by the Institutional Animal Care and Use Committee (IACUC), Biological Resource Center (BRC) A*STAR. BALB/c mice were purchased from InVivos, Singapore and fed with a standard laboratory diet and distilled water ad libitum. The animals were kept on a 12-hour light/dark cycle at 22±2° C. in individually ventilated caging systems with 50-65% humidity in the Biological Resource Centre, A*Star, Singapore. For single dose oral pharmacokinetic studies, female BALB/c mice (n=8, 6-8 weeks old) were used. The animals were fasted overnight and administered with a single oral dose (20 mg/kg) of WNTinib as prepared above. Blood samples were collected at pre-determined time points [0 (pre-dosing), 0.5, 1, 2, 4, 8, 12, and 24 hours] through the retro-orbital plexus (using micro hematocrit capillary tubes) into microvette CB300 K2E tubes. A sparse sampling technique (four mice per time point) was adopted during blood collection so that blood loss from each mouse was kept less than 10% of the total blood volume. Plasma was harvested by centrifuging the blood using a Sorvall Legend Micro 21R centrifuge (Thermo Scientific) at 3000 rpm for 15 minutes and stored at […] until further analysis. Mice were allowed to access feed 2 hours post-dosing and water ad libitum. Pharmacokinetic analysis of these compounds was performed using a Shimadzu UFLC prominence system (equipped with degasser (DGU-20A5), isopump (LC-20AD), autosampler (SIL-20AC HT) and column oven (CTO-20AC)) connected to a Sciex 4000 Q-Trap LC/MS/MS with heated electrospray ionization source. The primary stock solution (1.0 mg/mL) of WNTinib and Carbamazepine (Internal Standard, IS) were prepared in DMSO and used for subsequent dilutions. Required secondary and working stocks were prepared from the primary stocks using acetonitrile:water (75:25, v/v) as a diluent for the calibration curve (CC) and quality control (QC) studies. For the pharmacokinetic analysis, the mouse plasma was mixed with carbamazepine (50 ng/ml, final concentration) and extraction solvent (70% acetonitrile and 0.1% formic acid) and shaken for 10 minutes. After vigorous shaking, the samples were centrifuged at 14000 rpm for 20 minutes and the supernatant was collected. Chromatographic resolution of compound and the IS was achieved by injecting 1-2 μL of the processed sample on a Luna C18 100 Å column (50×2.0 mm, 5 μm; Phenomenex, USA) maintained at room temperature using a mobile phase consisting of 5 mM ammonium formate (buffered with 0.1% formic acid) and acetonitrile delivered at a flow-rate of 0.4 mL/minute. Quantitation was carried out using the multiple reaction monitoring of the transitions.

[3] = test system: EZH2; assay: Cellular fractionation, EZH2 localization in MYC-CTNNB1 tumor organoids; format: cell-based, mouse; conditions: WNTinib 1 μM, sorafenib 10 μM, 24 hours
Protocol: Cells were spun down again at 500 g, 4° C., for 5 minutes in ultra-low attachment 1.5 mL Eppendorf tubes. Cells were resuspended in 100 μL of lysis buffer 1 (50 mM HEPES-KOH, pH 7.5, 140 mM NaCl, 1 mM EDTA, 10% glycerol, 0.5% NP-40, 0.25% Triton X-100, lx protease/phosphatase inhibitors) and agitated at 4° C. for 10 minutes. Lysate was spun at 1,350 g, 4° C., for 5 minutes. The supernatant was saved for the cytoplasmic fraction. The pellet was resuspended in 100 μL of lysis buffer 2 (10 mM Tris-HCl, pH 8.0, 200 mM NaCl, 1 mM EDTA, 0.5 mM EGTA, lx protease/phosphatase inhibitors) and agitated at room temperature for 10 minutes. The supernatant was saved for the nuclear fraction. The pellet was resuspended in 35 μL of lysis buffer 3 (10 mM Tris-HCl, pH 8.0, 100 mM NaCl, 1 mM EDTA, 0.5 mM EGTA, 0.1% Na-Deoxycholate, 0.5% N-lauroylsarcosine, lx protease/phosphatase inhibitors) and agitated at 4° C. for 10 minutes. 1/10 volume of 10% Triton X-100 was added to the lysate, which was spun down at 20,000 g, 4° C., for 10 minutes. Supernatant was taken for chromatin fraction. […] SDS-PAGE was performed using standard procedures.
Next, EZH2 localization in WNTinib sensitive MYC-CTNNB1 and insensitive MYC-Tp53 tumor organoids was investigated. EZH2 localized diffusively in the MYC-CTNNB1 model but was primarily nuclear insoluble in the MYC-Tp53 model (FIG. 6E; lanes 7-9, left and right panels).

SMILES	effect of EZH2 degradation or inhibition (MS1943, GSK343) on activity [1]	Combination Index CI with p38i SB202190 [1]	Combination Index CI with KIT ligand SCF [1]	Combination Index CI with BRAFi dabrafenib [1]	detectable quantities of drug in blood plasma, time post dosing ([2]; 20 mg/kg oral)	half-life ([2]; female, BALB/c, mouse, plasma) [h]	concentration at 24 h ([2]; female, BALB/c, mouse, plasma, 20 mg/kg oral, read-out: concentration 24 hours after oral dosing) [µM]	nuclear partitioning of EZH2 [3]	pT367 EZH2 in the cytoplasm [3]
CNC(=O)c1cc(Oc2ccc(NC(=O)Nc3ccc(C(F)(F)C(F)(F)F)cc3)c(F)c2)ccn1 [WNTinib, 4-(3-fluoro-4-(3-(4-(perfluoroethyl)phenyl)ureido)phenoxy)-N-methylpicolinamide]	antagonized the activity of WNTinib	> 1	> 1	> 1	up to 72 hours	9.38	7	increase in nuclear partitioning of EZH2	ablated
CNC(=O)c1cc(Oc2ccc(NC(=O)Nc3ccc(Cl)c(C(F)(F)F)c3)cc2)ccn1 [sorafenib, reference compound]	did not alter the dose response to sorafenib	this was not the case for sorafenib	only WNTinib and not sorafenib activity was antagonized	this was not the case for sorafenib	–	8	–	did not impact phosphorylation or nuclear to cytoplasmic ratios of EZH2	did not impact phosphorylation

— patent US20230404985A1, “METHODS OF TREATING TUMORS AND CANCERS HAVING DYSREGULATED WNT SIGNALING PATHWAYS” (ICAHN SCHOOL OF MEDICINE AT MOUNT SINAI, priority 2020, published 2023)
